Data from the supplement of paper PMC10307832.

Experiments:
Test in all cases: relative viability (nuclei count vs DMSO), 5 days (fraction); higher = more cells survive
Bicalutamide + Olaparib = compound: CC(O)(CS(=O)(=O)c1ccc(F)cc1)C(=O)Nc1ccc(C#N)c(C(F)(F)F)c1 [Bicalutamide] + O=C(c1cc(Cc2n[nH]c(=O)c3ccccc23)ccc1F)N1CCN(C(=O)C2CC2)CC1 [Olaparib] (partner 8 µM)
Summary of the method: (§1)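 Lung cancer cell lines were pin-tool dosed in 1536-well plates on the day after seeding, with either a lone drug or a fixed anchor-drug dose plus five library-drug doses (not always all listed) in √10 steps. Nuclei were counted on 4× images after 5 days. Relative viability is the ratio of treated-well to vehicle-well nuclei counts, with each value a median of duplicate plates.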

Bicalutamide + Lapatinib = compound: CC(O)(CS(=O)(=O)c1ccc(F)cc1)C(=O)Nc1ccc(C#N)c(C(F)(F)F)c1 [Bicalutamide] + CS(=O)(=O)CCNCc1ccc(-c2ccc3ncnc(Nc4ccc(OCc5cccc(F)c5)c(Cl)c4)c3c2)o1 [Lapatinib] (partner 2 µM)
Summary of the method: as §1

[1] = compound: C(C(=O)C(=O)O)Br [Bromopyruvate] + CC(=O)Nc1cccc(-n2c(=O)n(C3CC3)c(=O)c3c(Nc4ccc(I)cc4F)n(C)c(=O)c(C)c32)c1 [Trametinib] (partner 0.02 µM)
Summary of the method: as §1

[2] = compound: C(C(=O)C(=O)O)Br [Bromopyruvate] + CS(=O)(=O)N1CCN(Cc2cc3nc(-c4cccc5[nH]ncc45)nc(N4CCOCC4)c3s2)CC1 [Pictilisib] (partner 1 µM)
Summary of the method: as §1

## UMC-11
Bicalutamide + Olaparib; first compound 0.08 µM
  relative viability: 0.386
Bicalutamide + Olaparib; first compound 0.253 µM
  relative viability: 0.347
Bicalutamide + Olaparib; first compound 0.8 µM
  relative viability: 0.406
Bicalutamide + Olaparib; first compound 2.53 µM
  relative viability: 0.522
Bicalutamide + Lapatinib; first compound 0.08 µM
  relative viability: 0.951
Bicalutamide + Lapatinib; first compound 0.253 µM
  relative viability: 0.723
Bicalutamide + Lapatinib; first compound 0.8 µM
  relative viability: 1.12
Bicalutamide + Lapatinib; first compound 2.53 µM
  relative viability: 0.899
[1]; first compound 1 µM
  relative viability: 0.746
[1]; first compound 3.162 µM
  relative viability: 0.604
[1]; first compound 10 µM
  relative viability: 0.622
[1]; first compound 31.62 µM
  relative viability: 0.732
[1]; first compound 100 µM
  relative viability: 0.748
[2]; first compound 1 µM
  relative viability: 0.797
[2]; first compound 3.162 µM
  relative viability: 0.797
[2]; first compound 10 µM
  relative viability: 0.956
[2]; first compound 31.62 µM
  relative viability: 0.78
[2]; first compound 100 µM
  relative viability: 0.78
